Measured values published in the supplement of paper PMC10307832.

Columns and labels:
Assay in all cases: relative viability (nuclei count vs DMSO), 5 days (fraction); higher = more cells survive
[1] = system: NCI-H727
Method in brief: (§1)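 Each reported value is a median over duplicate plates. It expresses relative viability: treated-well nuclei count divided by vehicle-well nuclei count. Lung cancer cell lines in 1536-well plates were dosed by pin tool a day after seeding, alone with one drug or with a fixed anchor-drug dose plus five library-drug doses (not always all listed) in √10 steps, and nuclei were counted after 5 days.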

[2] = system: BEN
Method in brief: as §1

[3] = system: NCI-H1944
Method in brief: as §1

[4] = system: ABC-1
Method in brief: as §1

[5] = system: NCI-H1651
Method in brief: as §1

[6] = system: NCI-H460
Method in brief: as §1

[7] = system: NCI-H2023
Method in brief: as §1

[8] = system: NCI-H520
Method in brief: as §1

[9] = system: 201T
Method in brief: as §1

[10] = system: NCI-H661
Method in brief: as §1

[11] = system: NCI-H441
Method in brief: as §1

[12] = system: LCLC-97TM1
Method in brief: as §1

[13] = system: NCI-H2087
Method in brief: as §1

[14] = system: A-427
Method in brief: as §1

[15] = system: LC-2-ad
Method in brief: as §1

[16] = system: NCI-H1915
Method in brief: as §1

[17] = system: NCI-H596
Method in brief: as §1

[18] = system: NCI-H650
Method in brief: as §1

[19] = system: PC-3 [JPC-3]
Method in brief: as §1

[20] = system: CAL-12T
Method in brief: as §1

[21] = system: NCI-H1650
Method in brief: as §1

[22] = system: H3255
Method in brief: as §1

SMILES: O=C(O)c1ccc(-c2c[nH]c3ncc(-c4ccccc4)cc23)cc1C1CCCC1 + COc1cc2c(Oc3ccc(NC(=O)C4(C(=O)Nc5ccc(F)cc5)CC4)cc3F)ccnc2cc1OCCCN1CCOCC1 [Foretinib] (partner 0.25 µM)
- relative viability ([1]; first compound 0.04 µM): 1.2
- relative viability ([1]; first compound 0.1265 µM): 0.823
- relative viability ([1]; first compound 0.4 µM): 0.754
- relative viability ([1]; first compound 1.265 µM): 0.944
- relative viability ([2]; first compound 0.04 µM): 0.586
- relative viability ([2]; first compound 0.1265 µM): 0.854
- relative viability ([2]; first compound 0.4 µM): 0.937
- relative viability ([2]; first compound 1.265 µM): 0.765
- relative viability ([3]; first compound 0.04 µM): 0.923
- relative viability ([3]; first compound 0.1265 µM): 0.988
- relative viability ([3]; first compound 0.4 µM): 0.911
- relative viability ([3]; first compound 1.265 µM): 0.807
- relative viability ([4]; first compound 0.04 µM): 1.02
- relative viability ([4]; first compound 0.1265 µM): 1.24
- relative viability ([4]; first compound 0.4 µM): 1.04
- relative viability ([4]; first compound 1.265 µM): 0.936
- relative viability ([5]; first compound 0.04 µM): 0.786
- relative viability ([5]; first compound 0.1265 µM): 0.806
- relative viability ([5]; first compound 0.4 µM): 0.792
- relative viability ([5]; first compound 1.265 µM): 0.607
- relative viability ([6]; first compound 0.04 µM): 0.993
- relative viability ([6]; first compound 0.1265 µM): 1.14
- relative viability ([6]; first compound 0.4 µM): 0.962
- relative viability ([6]; first compound 1.265 µM): 0.917
- relative viability ([7]; first compound 0.04 µM): 0.988
- relative viability ([7]; first compound 0.1265 µM): 1
- relative viability ([7]; first compound 0.4 µM): 0.895
- relative viability ([7]; first compound 1.265 µM): 0.749
- relative viability ([8]; first compound 0.04 µM): 0.687
- relative viability ([8]; first compound 0.1265 µM): 0.923
- relative viability ([8]; first compound 0.4 µM): 0.78
- relative viability ([8]; first compound 1.265 µM): 0.717
- relative viability ([9]; first compound 0.04 µM): 1.29
- relative viability ([9]; first compound 0.1265 µM): 1.25
- relative viability ([9]; first compound 0.4 µM): 1.11
- relative viability ([9]; first compound 1.265 µM): 0.958
- relative viability ([10]; first compound 0.04 µM): 1
- relative viability ([10]; first compound 0.4 µM): 0.971
- relative viability ([10]; first compound 1.265 µM): 0.977
- relative viability ([11]; first compound 0.04 µM): 1.14
- relative viability ([11]; first compound 0.1265 µM): 0.881
- relative viability ([11]; first compound 0.4 µM): 0.897
- relative viability ([11]; first compound 1.265 µM): 0.563
- relative viability ([12]; first compound 0.04 µM): 0.911
- relative viability ([12]; first compound 0.1265 µM): 1.03
- relative viability ([12]; first compound 0.4 µM): 0.892
- relative viability ([12]; first compound 1.265 µM): 0.525
- relative viability ([13]; first compound 0.04 µM): 0.933
- relative viability ([13]; first compound 0.1265 µM): 1.16
- relative viability ([13]; first compound 0.4 µM): 1.06
- relative viability ([13]; first compound 1.265 µM): 0.901
- relative viability ([14]; first compound 0.04 µM): 0.994
- relative viability ([14]; first compound 0.1265 µM): 1.12
- relative viability ([14]; first compound 0.4 µM): 1.01
- relative viability ([14]; first compound 1.265 µM): 0.786
- relative viability ([15]; first compound 0.04 µM): 0.973
- relative viability ([15]; first compound 0.1265 µM): 0.935
- relative viability ([15]; first compound 0.4 µM): 0.798
- relative viability ([15]; first compound 1.265 µM): 0.702
- relative viability ([16]; first compound 0.04 µM): 1.13
- relative viability ([16]; first compound 0.1265 µM): 1.11
- relative viability ([16]; first compound 0.4 µM): 1.03
- relative viability ([16]; first compound 1.265 µM): 0.783
- relative viability ([17]; first compound 0.04 µM): 0.783
- relative viability ([17]; first compound 0.1265 µM): 0.79
- relative viability ([17]; first compound 0.4 µM): 0.919
- relative viability ([17]; first compound 1.265 µM): 0.999
- relative viability ([18]; first compound 0.04 µM): 1.13
- relative viability ([18]; first compound 0.1265 µM): 1.11
- relative viability ([18]; first compound 0.4 µM): 0.888
- relative viability ([18]; first compound 1.265 µM): 0.71
- relative viability ([19]; first compound 0.04 µM): 1
- relative viability ([19]; first compound 0.1265 µM): 1.14
- relative viability ([19]; first compound 0.4 µM): 0.978
- relative viability ([19]; first compound 1.265 µM): 0.61
- relative viability ([20]; first compound 0.04 µM): 1.22
- relative viability ([20]; first compound 0.1265 µM): 1.07
- relative viability ([20]; first compound 0.4 µM): 1.13
- relative viability ([20]; first compound 1.265 µM): 0.997
- relative viability ([21]; first compound 0.04 µM): 1.22
- relative viability ([21]; first compound 0.1265 µM): 1.57
- relative viability ([21]; first compound 0.4 µM): 1.6
- relative viability ([21]; first compound 1.265 µM): 1.14
- relative viability ([22]; first compound 0.04 µM): 0.934
- relative viability ([22]; first compound 0.1265 µM): 1.08
- relative viability ([22]; first compound 0.4 µM): 0.888
- relative viability ([22]; first compound 1.265 µM): 0.814

SMILES: O=C(O)c1ccc(-c2c[nH]c3ncc(-c4ccccc4)cc23)cc1C1CCCC1 + Cc1cc(Nc2cc(N3CCN(C)CC3)nc(Sc3ccc(NC(=O)C4CC4)cc3)n2)n[nH]1 [Tozasertib] (partner 0.1 µM)
- relative viability ([1]; first compound 0.04 µM): 0.67
- relative viability ([1]; first compound 0.1265 µM): 0.533
- relative viability ([1]; first compound 0.4 µM): 0.407
- relative viability ([1]; first compound 1.265 µM): 0.578
- relative viability ([2]; first compound 0.04 µM): 0.603
- relative viability ([2]; first compound 0.1265 µM): 0.501
- relative viability ([2]; first compound 0.4 µM): 0.49
- relative viability ([2]; first compound 1.265 µM): 0.437
- relative viability ([3]; first compound 0.04 µM): 0.231
- relative viability ([3]; first compound 0.1265 µM): 0.259
- relative viability ([3]; first compound 0.4 µM): 0.233
- relative viability ([3]; first compound 1.265 µM): 0.249
- relative viability ([4]; first compound 0.04 µM): 0.2
- relative viability ([4]; first compound 0.1265 µM): 0.192
- relative viability ([4]; first compound 0.4 µM): 0.147
- relative viability ([4]; first compound 1.265 µM): 0.18
- relative viability ([5]; first compound 0.04 µM): 0.689
- relative viability ([5]; first compound 0.1265 µM): 0.708
- relative viability ([5]; first compound 0.4 µM): 0.559
- relative viability ([5]; first compound 1.265 µM): 0.481
- relative viability ([6]; first compound 0.04 µM): 0.413
- relative viability ([6]; first compound 0.1265 µM): 0.384
- relative viability ([6]; first compound 0.4 µM): 0.491
- relative viability ([6]; first compound 1.265 µM): 0.306
- relative viability ([7]; first compound 0.04 µM): 0.374
- relative viability ([7]; first compound 0.1265 µM): 0.39
- relative viability ([7]; first compound 0.4 µM): 0.318
- relative viability ([7]; first compound 1.265 µM): 0.242
- relative viability ([8]; first compound 0.04 µM): 0.504
- relative viability ([8]; first compound 0.1265 µM): 0.408
- relative viability ([8]; first compound 0.4 µM): 0.384
- relative viability ([8]; first compound 1.265 µM): 0.483
- relative viability ([9]; first compound 0.04 µM): 0.943
- relative viability ([9]; first compound 0.1265 µM): 0.973
- relative viability ([9]; first compound 0.4 µM): 0.893
- relative viability ([9]; first compound 1.265 µM): 0.771
- relative viability ([10]; first compound 0.04 µM): 0.367
- relative viability ([10]; first compound 0.1265 µM): 0.36
- relative viability ([10]; first compound 0.4 µM): 0.353
- relative viability ([10]; first compound 1.265 µM): 0.34
- relative viability ([11]; first compound 0.04 µM): 0.71
- relative viability ([11]; first compound 0.1265 µM): 0.638
- relative viability ([11]; first compound 0.4 µM): 0.548
- relative viability ([11]; first compound 1.265 µM): 0.325
- relative viability ([12]; first compound 0.04 µM): 0.338
- relative viability ([12]; first compound 0.1265 µM): 0.315
- relative viability ([12]; first compound 0.4 µM): 0.243
- relative viability ([12]; first compound 1.265 µM): 0.188
- relative viability ([13]; first compound 0.04 µM): 0.248
- relative viability ([13]; first compound 0.1265 µM): 0.29
- relative viability ([13]; first compound 0.4 µM): 0.227
- relative viability ([13]; first compound 1.265 µM): 0.186
- relative viability ([14]; first compound 0.04 µM): 0.23
- relative viability ([14]; first compound 0.1265 µM): 0.255
- relative viability ([14]; first compound 0.4 µM): 0.182
- relative viability ([14]; first compound 1.265 µM): 0.182
- relative viability ([15]; first compound 0.04 µM): 0.482
- relative viability ([15]; first compound 0.1265 µM): 0.407
- relative viability ([15]; first compound 0.4 µM): 0.399
- relative viability ([15]; first compound 1.265 µM): 0.402
- relative viability ([16]; first compound 0.04 µM): 0.445
- relative viability ([16]; first compound 0.1265 µM): 0.427
- relative viability ([16]; first compound 0.4 µM): 0.364
- relative viability ([16]; first compound 1.265 µM): 0.275
- relative viability ([17]; first compound 0.04 µM): 0.863
- relative viability ([17]; first compound 0.1265 µM): 0.802
- relative viability ([17]; first compound 0.4 µM): 0.851
- relative viability ([17]; first compound 1.265 µM): 0.93
- relative viability ([18]; first compound 0.04 µM): 0.706
- relative viability ([18]; first compound 0.1265 µM): 0.691
- relative viability ([18]; first compound 0.4 µM): 0.641
- relative viability ([18]; first compound 1.265 µM): 0.351
- relative viability ([19]; first compound 0.04 µM): 0.926
- relative viability ([19]; first compound 0.1265 µM): 0.881
- relative viability ([19]; first compound 0.4 µM): 0.766
- relative viability ([19]; first compound 1.265 µM): 0.65
- relative viability ([20]; first compound 0.04 µM): 0.314
- relative viability ([20]; first compound 0.1265 µM): 0.374
- relative viability ([20]; first compound 0.4 µM): 0.315
- relative viability ([20]; first compound 1.265 µM): 0.337
- relative viability ([21]; first compound 0.04 µM): 0.458
- relative viability ([21]; first compound 0.1265 µM): 0.388
- relative viability ([21]; first compound 0.4 µM): 0.372
- relative viability ([21]; first compound 1.265 µM): 0.295
- relative viability ([22]; first compound 0.04 µM): 0.524
- relative viability ([22]; first compound 0.1265 µM): 0.693
- relative viability ([22]; first compound 0.4 µM): 0.618
- relative viability ([22]; first compound 1.265 µM): 0.604
